Assay results reported in PMC4718634, “Murine GPRC6A Mediates Cellular Responses to L-Amino Acids, but Not Osteocalcin Variants” (PLoS ONE, 2016).
Like-named read-outs stand apart in the source and are kept apart here.

Tests used:
MIN6 or βTC6 cells = experiment: Insulin release, MIN6 or βTC6 cells (summary table); type: cell-based, murine; conditions: S1 Table
Procedure: MIN6 or βTC-6 cells were seeded in 24-well plates at 170,000 cells per well in DMEM (containing 4.5g/L glucose, 10 mM HEPES, 100 U/ml penicillin, 100 μg/ml streptomycin and 15% de-complemented FBS) and incubated at 37°C / 5% CO2 for 72 h. Cells were then washed with 500 μl PBS and incubated in 500 μl deprivation media (DMEM with zero glucose, 10 mM HEPES, 1 mM Na-pyruvate, 100 U/ml penicillin, 100 μg/ml streptomycin, 15% de-complemented FBS) for 2 h at 37°C. Media was aspirated and after washing with 500 μl PBS, cells were treated with 250 μl of Krebs buffer (250 mM NaCl, 5.9 mM KCl, 1.2 mM MgCl2, 1.3 mM CaCl2, 25 mM HEPES, 0.1% BSA (w/v), and 2 mM or 16.7 mM glucose; pH 7.4) in the presence or absence of test compound. After incubation for 2 h at 37°C, the assay was terminated by placing the plates on ice and supernatants were transferred to a 96-well plate in preparation for insulin ELISA (Alpco) following manufacturer’s instructions. The cell monolayer was washed twice with 500 μl of PBS and then lysed using 250 μl of 1 N NaOH prior to protein measurement by the method of Bradford (1976).

mGPRC6A (mouse GPRC6A) = biological target: T1, mGPRC6A (mouse GPRC6A) (Mus musculus, UniProt Q8K4Z6); experiment: Inositol phosphate (IP-One HTRF) accumulation, FlpIn-TREx-HEK293-mGPRC6A cells; type: cell-based; conditions: for EC50: 30 min, HTRF, HBSS pH 7.2, mean ± SEM of at least three independent experiments, read-out: pEC50, inositol phosphate accumulation (converted)
T1 sequence (Q8K4Z6 21-928): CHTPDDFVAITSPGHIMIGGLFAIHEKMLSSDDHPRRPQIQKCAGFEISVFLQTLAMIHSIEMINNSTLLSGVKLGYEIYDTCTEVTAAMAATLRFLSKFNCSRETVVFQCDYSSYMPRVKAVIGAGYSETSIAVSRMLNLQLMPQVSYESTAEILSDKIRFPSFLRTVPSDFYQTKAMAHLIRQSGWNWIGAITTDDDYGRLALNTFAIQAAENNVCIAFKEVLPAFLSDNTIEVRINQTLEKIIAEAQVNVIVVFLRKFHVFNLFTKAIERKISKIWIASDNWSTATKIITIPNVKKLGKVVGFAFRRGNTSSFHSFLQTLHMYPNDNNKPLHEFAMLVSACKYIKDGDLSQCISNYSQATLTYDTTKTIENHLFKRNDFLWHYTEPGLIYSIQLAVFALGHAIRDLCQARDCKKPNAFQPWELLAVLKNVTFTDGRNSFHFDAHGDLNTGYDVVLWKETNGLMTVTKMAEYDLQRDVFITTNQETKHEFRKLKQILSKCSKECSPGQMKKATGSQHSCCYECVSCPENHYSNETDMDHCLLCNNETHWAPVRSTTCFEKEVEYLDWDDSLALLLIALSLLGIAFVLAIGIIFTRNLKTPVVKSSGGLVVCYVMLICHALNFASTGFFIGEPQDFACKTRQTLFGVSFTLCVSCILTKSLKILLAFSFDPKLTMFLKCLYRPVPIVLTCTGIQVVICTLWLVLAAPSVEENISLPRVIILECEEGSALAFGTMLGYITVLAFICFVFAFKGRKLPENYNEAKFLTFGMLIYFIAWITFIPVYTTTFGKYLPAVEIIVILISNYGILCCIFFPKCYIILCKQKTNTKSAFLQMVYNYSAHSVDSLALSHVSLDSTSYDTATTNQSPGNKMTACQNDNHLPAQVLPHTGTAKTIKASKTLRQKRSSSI
Procedure: pcDNA 5/FRT/TO constructs were isogenically integrated into a FlpIn-TREx-HEK293 cell line (Life Technologies). FlpIn-TREx-HEK293-mGPRC6A and FlpIn-TREx-HEK293-hGPRC6A cells were then selected using 600 μg/ml hygromycin and 5 μg/ml blasticidin and grown in culture medium consisting of Dulbecco’s Modified Eagle Medium (DMEM), supplemented with 10% (v/v) foetal bovine serum (FBS) at 37°C in 5% CO2 and were sub-cultured in a 1:3 ratio every 3–4 days. Cells were cultured overnight in the presence of 1 μg/ml tetracycline to induce GPRC6A expression. […] 48 h after transfection, cells were selected using 3 μg/ml puromycin and grown as above.
Inositol phosphate (IPX) accumulation experiments were performed using the IP-One HTRF® assay kit (Cisbio, France). Briefly, 24h after transfection with G proteins (as above), 10^5 cells were seeded per well in PDL-coated, 96-well white plates and incubated overnight. Cells were then washed 2 x 2h at 37°C in HBSS buffer (pH 7.2) containing 20 mM HEPES, 3.5 mM NaHCO3, 1 mM CaCl2 and 0.1% (w/v) BSA. Test compounds were then prepared in the kit stimulation buffer containing 2 mM CaCl2; cells were then incubated with 70 μl of drugs for 30 min, after which 15 μl of both IP1-D2 and Ab-Cryp were added to the cells, followed by a 1 h incubation at RT. Plates were read using an Envision plate reader (Perkin Elmer), using an HTRF protocol. Results were calculated from the 665nm / 620nm HTRF ratio (Ratio = A665nm/A620nm x 10^4) and expressed as a percentage of the maximal response obtained.
Concentration-response data were analysed using a three or four parameter logistic function (Motulsky & Christopoulos, 2004) to generate estimates of agonist potency (LogEC50). Data for all HEK293 assays represent the mean ± SEM of at least three independent experiments (except cell impedance, n = 2). For GLP-1 release, the data represent mean ± SEM of three to five independent experiments (except for OCN, wash; n = 2). For insulin release assays, data represent the mean ± SEM of three independent experiments (except for islet studies; n = 2). Insulin release data were normalised to the response to vehicle in either low or high [glucose]. Statistical analysis for GLP-1 release data were performed by one-way ANOVA, followed by Sidak’s multiple comparisons test (treating wash / no wash datasets separately). Statistical analyses for insulin release data were performed by two-way ANOVA (with [glucose] and drug treatment as group variables), followed by Sidak’s multiple comparisons test. Where only high [glucose] groups were evaluated, statistical analysis was by one-way ANOVA followed by Sidak’s multiple comparisons test.

Row | Compound | Insulin release (summary) (MIN6 or βTC6 cells) | EC50 (mGPRC6A (mouse GPRC6A); co-expression of GαqG66D) | EC50 (mGPRC6A (mouse GPRC6A); co-expression of wild-type Gαq) | potency of L-ornithine with GαqG66D compared to wild-type Gαq (mGPRC6A (mouse GPRC6A); inositol phosphate accumulation)
1 | OCN: osteoblast-derived peptide, osteocalcin; variant not specified at the place (YLYQWLGAPVPYPDPLEPRREVCELNPDCDELADHIGFQEAYRRFYGPV; UniProt P02818 52-100, looked up) | Insulin release – response to L-aa. No response to OCN | – | – | –
2 | NCCC[C@H](N)C(=O)O [L-ornithine] | – | 100 µM | 1000 µM | ten-fold higher potency
